Measured values reported in patent US20100285443A1, “Diagnostic Methods for Diseases Caused by a HPV Infection Comprising Determining the Methylation Status of the HPV Genome” (OncoMethylome Sciences SA, priority 2006, published 2010).

Experiments:
[1] = system: E2-binding sites at the URR region; assay: Chromatin immunoprecipitation (ChIP) of E2 viral protein at the E2-binding sites of the URR; type: cell-based; settings: after induced hypomethylation of the E2-binding sites
Text: (§1) The described HPV16 DNA methylomes also reflect the proposed expression patterns of the virus in cervical tumorigenesis, characterized by a significant overexpression of E6 and E7 in the carcinomas. […] This event is particularly observed for the E1/E2 region. The protein E2 is an inhibitor of cell proliferation by regulating the viral URR, repressing the E6 and E7 oncoproteins and ultimately causing cell cycle arrest at G2 (Frattini 1997 EMBO J). Thus, the genomic loss of E2 could contribute to the progression of the disease. […] We observe instead methylation of the E2-binding sites at the URR region that are associated with high level of expression of the oncoproteins E6 and E7. Most important, we show by chromatin immunoprecipitation (ChIP) that the E2 viral protein cannot bind to the methylated E2-binding sites at the URR region, and thus leads to E6 and E7 overexpression.

[2] = system: E6 and E7; assay: Expression of HPV-16 E6 and E7 oncoproteins (Western blotting); type: cell-based, HPV16; settings: after induced hypomethylation of the E2-binding sites
Text: The detection of the expression of viral oncogenic proteins was realized by Western blotting technique using commercially available antibodies, raised against E6 and E7.
as §1

[3] = system: HPV16 genome; assay: DNA methylation of the HPV16 genome (bisulfite genomic sequencing); type: cell-based
Text: To determine the methylation pattern of all […] genes, Bisulfite Genomic Sequencing and Methylation-specific PCR (MSP) were used. Essentially, both detection methods use the C to T conversion by bisulfite when the cytosine is not methylated. The Primers used are described in Table 1 (Bisulfite genomic sequencing—SEQ ID NOs 1 to 42) and Table 2 (Methylation-specific PCR—SEQ ID NOs 43 to 46).
Thus, the viral genome is methylated by the host human cellular DNMTs. Because the integration of HPV16 in the human genome occurs in most cervical tumors and a significant proportion of premalignant lesions, we can consider that human DNMTs might recognize these sequences as “foreign” DNA that needs to be methylated. Indeed in our study, we have confirmed by FISH analyses that the HPV16 genome is integrated in the host cell DNA in CaSki and SiHa.
The described HPV16 DNA methylomes also reflect the proposed expression patterns of the virus in cervical tumorigenesis, characterized by a significant overexpression of E6 and E7 in the carcinomas. […] This event is particularly observed for the E1/E2 region. The protein E2 is an inhibitor of cell proliferation by regulating the viral URR, repressing the E6 and E7 oncoproteins and ultimately causing cell cycle arrest at G2 (Frattini 1997 EMBO J). Thus, the genomic loss of E2 could contribute to the progression of the disease. […]

Nc1ncn([C@H]2C[C@H](O)[C@@H](CO)O2)c(=O)n1 [5-aza-2′-deoxycytidine]
recruitment of E2 to its URR binding sites [1]: recruitment of E2 to its URR binding sites | E6 and E7 expression [2]: marked reduction | methylation of the E2-binding sites at the URR region [3]: hypomethylation events
